Results as given in the supplement of paper PMC10331698.
± gives the standard deviation of the averaged measurements.

Tests used:
Test in all cases: level (log10 ratio to DMSO vehicle control); higher = higher biomarker level / cell amount than vehicle control
[1] = compound: C=C(C)C(=O)OCCC(F)(F)C(F)(F)C(F)(F)C(F)(F)C(F)(F)C(F)(F)C(F)(F)C(F)(F)F [8:2 Fluorotelomer methacrylate] (in DMSO)
Description: (§1)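 BioMAP Diversity Plus panel of 12 human primary cell co-culture systems (3C, 4H, LPS, SAg, BT, BF4T, BE3C, CASM3C, HDF3CGF, KF3CT, MyoF, Mphg). Compounds were added 1 h before stimulation and left for 24 h (MyoF 48 h; BT 72 h for soluble read-outs or 6 d for IgG). Biomarkers were read by ELISA, cytotoxicity by SRB, PBMC viability and proliferation by Alamar Blue. Each well value was divided by the mean of 8 DMSO control wells on the same plate and log10 transformed; duplicate blinded samples were tested at 4 concentrations.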

[2] = compound: C[C@@H]1C[C@H]2[C@@H]3CCC4=CC(=O)C=C[C@]4(C)[C@@]3(F)[C@@H](O)C[C@]2(C)[C@@]1(O)C(=O)COP(=O)(O)O [Dexamethasone sodium phosphate] (in DMSO)
Description: as §1

[3] = compound: O=C(O)C(F)(F)C(F)(F)C(F)(F)OC(F)(F)F [Perfluoro(4-methoxybutanoic) acid] (in DMSO)
Description: as §1

[4] = compound: O=S(=O)(O)C(F)(F)C(F)(F)C(F)(F)C(F)(F)C(F)(F)C(F)(F)C(F)(F)F [Perfluoroheptanesulfonic acid] (in DMSO)
Description: as §1

[5] = compound: OCC(F)(F)C(F)(F)C(F)(F)C(F)(F)C(F)(F)C(F)(F)CO [1H,1H,8H,8H-Perfluorooctane-1,8-diol] (in DMSO)
Description: as §1

[6] = compound: OCC(F)(F)C(F)(F)C(F)(F)C(F)F [1H,1H,5H-Perfluoropentanol] (in DMSO)
Description: as §1

Test System | level (log10) ([1]; 6700 nM) | level (log10) ([1]; 20000 nM) | level (log10) ([2]; 1500 nM) | level (log10) ([2]; 4400 nM) | level (log10) ([2]; 13000 nM) | level (log10) ([2]; 40000 nM) | level (log10) ([3]; 6700 nM) | level (log10) ([3]; 20000 nM) | level (log10) ([3]; 60000 nM) | level (log10) ([4]; 1500 nM) | level (log10) ([4]; 4400 nM) | level (log10) ([4]; 13000 nM) | level (log10) ([4]; 40000 nM) | level (log10) ([5]; 6700 nM) | level (log10) ([5]; 20000 nM) | level (log10) ([5]; 60000 nM) | level (log10) ([6]; 6700 nM) | level (log10) ([6]; 20000 nM) | level (log10) ([6]; 60000 nM)
MyoF:CXCL8/IL-8 | 0.0095 ± 0.025 | 0.004 ± 0.0085 | -0.0725 ± 0.011 | -0.074 ± 0.013 | -0.1 ± 0.011 | -0.104 ± 0.0057 | -0.0145 ± 0.018 | -0.004 ± 0.0042 | 0.01 ± 0.0028 | 0.0195 ± 0.011 | 0.022 ± 0.011 | 0.026 | 0.032 ± 0.023 | 0 ± 0.0085 | 0.004 ± 0.025 | 0 ± 0.034 | -0.018 ± 0.076 | 0.0485 ± 0.064 | 0.07 ± 0.13
MyoF:Collagen I | -0.0335 ± 0.015 | -0.0125 ± 0.0035 | 0.032 ± 0.021 | 0.032 ± 0.0057 | 0.006 ± 0.0071 | 0.027 ± 0.0042 | -0.0165 ± 0.0078 | -0.013 ± 0.0028 | -0.011 ± 0.0071 | -0.0035 ± 0.0021 | 0.0135 ± 0.005 | -0.009 ± 0.0085 | 0.0105 ± 0.011 | -0.0045 ± 0.025 | -0.0165 ± 0.013 | -0.0145 ± 0.0035 | -0.003 ± 0.0057 | 0.021 ± 0.041 | 0.0305 ± 0.052
MyoF:Collagen III | -0.029 ± 0.017 | -0.005 ± 0.028 | 0.0055 ± 0.021 | 0.0255 ± 0.035 | 0.0185 ± 0.021 | 0.028 ± 0.018 | -0.006 ± 0.0071 | 0.0015 ± 0.015 | 0.008 ± 0.0057 | -0.0035 ± 0.022 | 0.002 ± 0.0085 | -0.0195 ± 0.013 | -0.006 ± 0.025 | -0.008 ± 0.013 | -0.016 | -0.005 ± 0.0028 | -0.0005 ± 0.0092 | 0.0295 ± 0.015 | 0.037 ± 0.045
MyoF:Collagen IV | -0.0265 ± 0.015 | -0.027 ± 0.025 | -0.007 ± 0.021 | 0.011 ± 0.041 | 0.0005 ± 0.037 | 0.0195 ± 0.011 | -0.0165 ± 0.0021 | -0.0125 ± 0.0035 | 0.016 ± 0.027 | 0.013 ± 0.018 | -0.017 ± 0.0057 | -0.012 ± 0.013 | 0.0025 ± 0.023 | -0.014 ± 0.0057 | -0.0115 ± 0.005 | -0.011 ± 0.042 | -0.001 ± 0.0014 | -0.0005 ± 0.0064 | 0.0095 ± 0.00071
MyoF:Decorin | -0.0145 ± 0.0021 | -0.004 ± 0.0057 | 0.016 ± 0.011 | 0.0385 ± 0.012 | 0.034 ± 0.033 | 0.039 ± 0.042 | -0.024 ± 0.041 | 0.0175 ± 0.079 | -0.0075 ± 0.063 | -0.0075 ± 0.015 | -0.006 ± 0.0042 | 0.009 ± 0.0014 | 0.0615 ± 0.011 | -0.006 ± 0.0085 | 0.0195 ± 0.013 | 0.0325 ± 0.016 | 0 ± 0.089 | 0.029 ± 0.12 | 0.0455 ± 0.15
MyoF:MMP-1 | -0.015 ± 0.02 | -0.0075 ± 0.0021 | 0.004 ± 0.031 | 0.005 ± 0.0014 | -0.0315 ± 0.013 | -0.0125 ± 0.005 | -0.0165 ± 0.0078 | -0.0245 ± 0.026 | 0.0205 ± 0.06 | 0.0105 ± 0.039 | -0.0055 ± 0.015 | -0.03 ± 0.0085 | 0.01 ± 0.044 | -0.02 ± 0.031 | -0.0145 ± 0.022 | 0.028 ± 0.12 | -0.054 ± 0.028 | -0.01 ± 0.052 | 0.093 ± 0.13
MyoF:PAI-I | 0.0005 ± 0.0078 | -0.013 ± 0.0071 | 0.0185 ± 0.0078 | 0.0085 ± 0.015 | 0.005 ± 0.0028 | 0.0085 ± 0.012 | -0.003 ± 0.0042 | -0.0045 ± 0.0064 | 0.0005 ± 0.00071 | 0.008 ± 0.0085 | 0.0085 ± 0.00071 | 0.005 ± 0.0028 | 0.019 ± 0.023 | -0.0015 ± 0.0064 | -0.004 ± 0.0028 | 0.0005 ± 0.011 | -0.0265 ± 0.0078 | -0.018 ± 0.031 | -0.0045 ± 0.0021
MyoF:SRB | 0.0025 ± 0.0064 | -0.0015 ± 0.005 | -0.01 ± 0.0099 | -0.0105 ± 0.0035 | -0.0135 ± 0.0092 | -0.0105 ± 0.00071 | -0.0075 ± 0.0035 | -0.008 ± 0.0028 | -0.0005 ± 0.00071 | -0.009 ± 0.0099 | 0.002 ± 0.0028 | 0.002 ± 0.0014 | -0.007 ± 0.0042 | -0.0095 ± 0.012 | -0.0145 ± 0.0064 | -0.0305 ± 0.0021 | -0.0025 ± 0.0078 | -0.004 ± 0.016 | 0.002 ± 0.0071
MyoF:TIMP-1 | 0.0115 ± 0.08 | 0.0185 ± 0.026 | -0.0965 ± 0.047 | -0.0915 ± 0.067 | -0.135 ± 0.11 | -0.12 ± 0.11 | -0.0155 ± 0.057 | -0.0185 ± 0.074 | -0.0135 ± 0.071 | 0.021 ± 0.04 | 0.013 ± 0.061 | 0.033 ± 0.054 | 0.11 ± 0.0099 | -0.0125 ± 0.042 | 0.0285 ± 0.042 | 0.0735 ± 0.035 | 0.0015 ± 0.026 | 0.004 ± 0.054 | 0.039 ± 0.027
MyoF:alpha-SM Actin | -0.009 ± 0.081 | 0.0025 ± 0.079 | 0.073 ± 0.051 | 0.084 ± 0.055 | 0.0695 ± 0.057 | 0.0745 ± 0.063 | 0.025 ± 0.028 | -0.0045 ± 0.028 | -0.002 ± 0.0057 | 0.0025 ± 0.1 | 0.0035 ± 0.077 | -0.021 ± 0.064 | 0.0025 ± 0.069 | 0.0075 ± 0.005 | 0.0035 ± 0.011 | -0.005 ± 0.0028 | -0.04 ± 0.059 | -0.0045 ± 0.018 | 0 ± 0.017
MyoF:bFGF | -0.0105 ± 0.00071 | 0.011 ± 0.014 | -0.035 ± 0.042 | -0.0165 ± 0.035 | -0.042 ± 0.031 | -0.028 ± 0.0042 | 0.001 ± 0.0042 | 0.0015 ± 0.012 | 0.015 ± 0.0042 | 0.021 ± 0.0071 | 0.0185 ± 0.005 | 0.0105 ± 0.00071 | 0.039 ± 0.02 | 0.009 ± 0.014 | 0.0145 ± 0.0021 | 0.014 ± 0.014 | -0.02 ± 0.016 | 0.0115 ± 0.026 | 0.0135 ± 0.012
lMphg:CCL2/MCP-1 | -0.032 | -0.012 ± 0.014 | -0.0595 ± 0.0078 | -0.103 ± 0.0064 | -0.117 ± 0.021 | -0.126 ± 0.0064 | -0.0195 ± 0.026 | -0.0075 ± 0.029 | 0.0265 ± 0.00071 | -0.009 ± 0.03 | -0.004 ± 0.047 | 0.003 ± 0.0042 | 0.035 ± 0.0028 | -0.017 ± 0.0071 | -0.005 ± 0.0042 | 0.008 ± 0.031 | -0.0185 ± 0.00071 | 0.008 ± 0.02 | 0.0075 ± 0.012
lMphg:CCL3/MIP-1alpha | 0.0075 ± 0.039 | 0.028 ± 0.065 | -0.139 ± 0.016 | -0.173 ± 0.043 | -0.254 ± 0.06 | -0.209 ± 0.055 | -0.0355 ± 0.035 | -0.038 ± 0.024 | -0.015 ± 0.021 | -0.04 ± 0.0071 | -0.0135 ± 0.047 | -0.0225 ± 0.064 | -0.014 ± 0.037 | -0.023 ± 0.0014 | -0.016 ± 0.0085 | 0.018 ± 0.025 | -0.012 ± 0.024 | -0.011 ± 0.027 | 0.0095 ± 0.0078
lMphg:CD40 | -0.0215 ± 0.029 | -0.05 ± 0.052 | -0.0185 ± 0.026 | -0.0375 ± 0.0092 | -0.038 ± 0.013 | -0.103 ± 0.04 | -0.014 ± 0.024 | -0.027 ± 0.033 | -0.0375 ± 0.03 | -0.034 ± 0.021 | -0.007 ± 0.034 | -0.0285 ± 0.043 | -0.0525 ± 0.028 | -0.0015 ± 0.018 | -0.028 ± 0.013 | -0.0405 ± 0.0078 | 0.0015 ± 0.023 | -0.012 ± 0.016 | 0.007 ± 0.02
lMphg:CD62E/E-Selectin | 0.0085 ± 0.015 | 0.02 ± 0.014 | -0.147 ± 0.0028 | -0.212 ± 0.0042 | -0.239 ± 0.089 | -0.292 ± 0.061 | -0.0175 ± 0.047 | -0.0265 ± 0.057 | -0.0225 ± 0.054 | -0.029 ± 0.028 | -0.0015 ± 0.046 | -0.0135 ± 0.054 | 0.0415 ± 0.043 | -0.0195 ± 0.028 | -0.004 ± 0.013 | -0.0075 ± 0.0064 | -0.006 ± 0.017 | 0.002 ± 0.014 | 0.02 ± 0.016
